Measured values as given in patent publication US6291657A (priority 1993, dated 2001).
“Also recorded” adds a separate entry of the source.

What was measured:
[1] = test system: glycolipid biosynthesis in HL-60 cells; test: Inhibition of glycolipid biosynthesis in HL-60 cells, [14C]-palmitic acid labelling, 1D-TLC;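 for all read-outs here: cells cultured 24 h with or without test compound, total cellular lipids resolved by one-dimensional TLC and detected by autoradiography, inhibition shown as missing Glc-Cer and gangliosides versus untreated cells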; type: cell-based, human; details: for effect of N-alkyl chain length on inhibition of glycolipid biosynthesis (loss of detectable Glc-Cer): HL-60, 0.5 mM, 1D-TLC (FIG. 4); for inhibition of glycolipid biosynthesis: HL-60, 500 μM, 1D-TLC (FIG. 1)
[2] = test system: Glc-Cer accumulation in WEHI-3B murine macrophage cells; test: In vitro Gaucher's disease model: CBE induced glycolipid storage in WEHI-3B cells, 1D-TLC; type: cell-based; details: CBE
Description: In this model, the murine macrophage cell line WEHI-3B was cultured in the presence of an irreversible glucocerebrosidase inhibitor, conduritol β epoxide (CBE), to mimic the inherited disorder found in Gaucher's disease. WEHI-3B cells are well-known, widely distributed and readily available murine macrophage cells. They are described in Cancer Res. 37, 546-550 (1977), and are readily available from the American Type Culture Collection, Rockville, Md, under accession number ATCC TIB 68. The compounds of the invention prevent lysosomal glycolipid storage which is useful for the management of Gaucher's disease and other glycolipid storage disorders as illustrated hereinafter in Table 3. Gaucher's disease is an autosomal recessive disorder characterized by an impaired ability to degrade glucocerebroside (glucosyl ceramide, Glc-Cer) due to mutations in the gene encoding β-glucocerebrosidase (β-D-glucosyl-N-acylsphingosine glucohydrolase, EC 3.2.1.45). This defect results in the lysosomal accumulation of Glc-Cer in cells of the macrophage-monocyte system [Barranger and Ginns, in The Metabolic Basis of Inherited Diseases, ed. Scriver et al., pp. 1677-1698, McGraw-Hill, New York, (1989); Beutler, Science 256, 794-799 (1992)]. By slowing the rate of glycolipid synthesis, the impaired catabolism of Glc-Cer can be offset, thereby leading to the maintenance of a balanced level of Glc-Cer.
FIGS. 5 and 6 show the analysis of NB-DNJ and NB-DGJ in an in vitro Gaucher's disease model.
The in vitro Gaucher's disease model was prepared as follows: WEHI-3B cells (American Type Culture Collection, Rockville, Md., U.S.A.) were maintained in logarithmic phase growth for 14 days in RPMI-1640 medium, 10% FCS, in the presence or absence of 50 μM conduritol β epoxide (CBE, Toronto Research Chemicals, Downsview, Canada) with or without NB-DNJ or NB-DGJ. Cells were passaged every 3 days and compound concentrations maintained throughout. Equal cell numbers (5×10^6) were harvested, extracted in 1 ml chloroform: methanol (2:1 v/v) overnight at 4° C., the extracts centrifuged, the chloroform:methanol extract retained and the pellet re-extracted as above for 2 hr. at room temperature. Pooled extracts were dried under nitrogen, re-dissolved in 10 μl chloroform:methanol (2:1 v/v) and separated by 1D-TLC in chloroform:methanol:water […]. Plates were air dried and visualized using α-naphthol (1% w/v in methanol) followed by 50% (v/v) sulphuric acid.

WEHI-3B cell lysosomes = test: Transmission electron microscopy of lysosomes of CBE treated WEHI-3B cells; type: cell-based, murine; details: transmission electron microscopy (FIG. 6)
[3] = test system: UDP-glucose:N-acylsphingosine glucosyltransferase; test: Inhibition of UDP-glucose:N-acylsphingosine glucosyltransferase; type: biochemical, rat brain, mouse macrophage (WEHI-3B); details: for IC50: highest concentrations tested, read-out: IC50 (not inhibitory)

SMILES | effect of N-alkyl chain length on inhibition of glycolipid biosynthesis (loss of detectable Glc-Cer) [1] | further results
CCCCCCN1C[C@H](O)[C@@H](O)[C@H](O)[C@H]1CO [N-hexyl DNJ] | completely inhibited glycolipid biosynthesis | –
CCCCCCN1C[C@H](O)[C@@H](O)[C@@H](O)[C@H]1CO [N-hexyl DGJ, N-hexyl deoxygalactonojirimycin] | completely prevented glycolipid biosynthesis; also recorded: completely inhibited glycolipid biosynthesis | prevention of glycolipid storage in in vitro Gaucher's disease model (in words) [2]: offset glucoceramide accumulation
CCN1C[C@H](O)[C@@H](O)[C@@H](O)[C@H]1CO [N-ethyl DGJ] | no effect; also recorded: inactive | –
CN1C[C@H](O)[C@@H](O)[C@@H](O)[C@H]1CO [N-methyl DGJ] | no effect; also recorded: inactive | –
O[C@H]1[C@H](O)[C@@H](O)[C@@H]2O[C@@H]2[C@@H]1O [CBE, conduritol β epoxide] | – | glycolipid accumulation in lysosomes (WEHI-3B cell lysosomes): glycolipid accumulation observed in the lysosomes
CCCCN1C[C@@H](O)[C@H](O)[C@H](O)[C@@H]1C [NB-DFJ] | – | inhibition of glycolipid biosynthesis [1]: without effect
CCCCN1C[C@H](NC(C)=O)[C@@H](O)[C@H](O)[C@H]1CO [NB-NAG, N-butyl 2-acetamido-1,2,5-trideoxy-1,5-imino-D-glucitol] | – | inhibition of glycolipid biosynthesis [1]: without effect
CCCN1C[C@H](O)[C@@H](O)[C@@H](O)[C@H]1CO [N-propyl DGJ, N-propyl deoxygalactonojirimycin] | partial inhibitory activity; also recorded: partially active | –
CN1C[C@H](O)[C@@H](O)[C@H](O)[C@H]1CO [N-methyl DNJ] | no effect | –
CCCN1C[C@H](O)[C@@H](O)[C@H](O)[C@H]1CO [N-propyl DNJ] | partial inhibitory activity | –
CCCCN1C[C@@H](O)[C@@H](O)[C@H](O)[C@H]1CO [NB-DMJ, N-butyl deoxymannojirimycin] | – | inhibition of glycolipid biosynthesis [1]: without effect
OC[C@H]1NC[C@H](O)[C@@H](O)[C@H]1O [DGJ, Deoxygalactonojirimycin] | no effect; also recorded: inactive | inhibition of glucose transfer ([3]; highest concentration tested 5.0 mM (FIG. 8)): not inhibitory at the highest concentration tested; IC50 [3]: > 5 mM
OC[C@H]1NC[C@H](O)[C@@H](O)[C@@H]1O [DNJ, deoxynojirimycin] | no effect | inhibition of glucose transfer ([3]; highest concentration tested 6.1 mM (FIG. 8)): not inhibitory at the highest concentration tested; IC50 [3]: > 5 mM
